From patent US8309586B2, “Glucokinase activators and pharmaceutical compositions containing the same as an active ingredient” (LG Life Sciences Ltd., priority 2007, dated 2012)

test system: Glucokinase known as hexokinase IV (human GK isoform 1, pancreas form and human GK isoform 2, liver form); assay: Glucokinase enzymatic activity assay (G6PDH-coupled, NADH absorbance at 340 nm); assay type: biochemical; conditions: 5 mM glucose, 1 mM ATP, 37 nM GK, 10 min at room temperature
Procedure: Glucokinase known as hexokinase IV (human GK isoform 1, pancreas form and human GK isoform 2, liver form) was cloned into an expression vector pET15 fx (Novagen Co.), transformed to E. coli BL21 (DE3) (Invitrogen Co.) strain, expressed, and purified using a nickel column. Then, the glucokinase obtained from dialysis was used in the following assay.
Glucokinase assay was performed by measuring absorbance according to the conventional manner. Briefly speaking, glucokinase converts the substrate glucose to glucose-6-phosphate under certain conditions, and glucose-6-phosphate dehydrogenase irreversibly converts glucose-6-phosphate to gluconate-6-phosphate. During this procedure, NADH is formed, and its absorbance is measured to calculate the enzymatic activity.
In the measurement of the enzymatic activity, each compound was diluted by two-fold from the maximum to the minimum concentrations, and 2 μl of each solution was added to 96 well UV plate (BD bioscience). 60 μl of the first mixture (final concentrations 25 mM Hepes, 25 mM KCl, 2 mM MgCl2, 1 mM DTT) was added, and thoroughly mixed. 38 μl of the enzyme mixture (final concentrations 1 mM ATP, 1 mM NAD, 5 mM glucose, 0.85U G6PDH, 37 nM GK) was added (final volume 100 μl), and the mixture was reacted for 10 min at room temperature. The absorbance of NADH was measured at 340 nm using a UV spectrometer (Molecular Device).
The enzyme activating abilities of the compounds according to the present invention are represented as AC1.5 (the compound concentration at which the enzymatic activity is increased by 1.5 times, nM), which is in the range of 0.001 uM to 30 uM or less, preferably 0.001 uM to 10 uM, more preferably 0.001 uM to 1 uM.

Row | AC1.5 (the compound concentration at which the enzymatic activity is increased by 1.5 times) | SMILES
1 | 24 nM | CCOC(=O)CC[C@@H]1CSC(c2cc3cc(C)cc(NC4CCCC4)c3[nH]2)=N1 [Example 157, 3-[(R)-2-(7-cyclopentylamino-5-methyl-1H-indol-2-yl)-4,5-dihydro-thiazol-4-yl]-propionic acid ethyl ester]
2 | 23 nM | COC(=O)C[C@@H]1CSC(c2cc3cc(COc4ccccc4)cc(NC4CCCC4)c3[nH]2)=N1 [Example 65, [(R)-2-(7-cyclopentylamino-5-phenoxymethyl-1H-indol-2-yl)-4,5-dihydro-thiazol-4-yl]-acetic acid methyl ester]
3 | 18 nM | O=C(C[C@@H]1CSC(c2cc3cc(F)cc(NC4CCCC4)c3[nH]2)=N1)NCCN1CCOCC1 [Example 85, 2-[(R)-2-(7-cyclopentylamino-5-fluoro-1H-indol-2-yl)-4,5-dihydro-thiazol-4-yl]-N-(2-morpholin-4-yl-ethyl)-acetamide]
4 | 24 nM | OC[C@@H]1CSC(c2cc3cc(Cl)cc(NC4CCSCC4)c3[nH]2)=N1 [Example 9, {(R)-2-[5-chloro-7-(tetrahydro-thiopyran-4-ylamino)-1H-indol-2-yl]-4,5-dihydro-thiazol-4-yl}-methanol]
5 | 11 nM | CN1CCN(CC[C@@H]2CSC(c3cc4cc(Cl)cc(NC5CCCC5)c4[nH]3)=N2)CC1 [Example 100, (5-chloro-2-{(R)-4-[2-(4-methyl-piperazin-1-yl)-ethyl]-4,5-dihydro-thiazol-2-yl}-1H-indol-7-yl)-cyclopentyl-amine]
6 | 119 nM | Cc1cc(NC2CCC(=O)CC2)c2[nH]c(C3=N[C@H](CC(=O)O)CS3)cc2c1 [Example 63, {(R)-2-[5-methyl-7-(4-oxo-cyclohexylamino)-1H-indol-2-yl]-4,5-dihydro-thiazol-4-yl}-acetic acid]
7 | 51 nM | CC(=O)N1CCN(CC[C@@H]2CSC(c3cc4cc(CS(C)(=O)=O)cc(NC5CCCC5)c4[nH]3)=N2)CC1 [Example 72, 1-(4-{2-[(R)-2-(7-cyclopentylamino-5-methanesulfonylmethyl-1H-indol-2-yl)-4,5-dihydro-thiazol-4-yl]-ethyl}-piperazin-1-yl)-ethanone]
8 | 6 nM | OCC[C@@H]1CSC(c2cc3cc(F)cc(NC4CCCC4)c3[nH]2)=N1 [Example 39, 2-[(R)-2-(7-cyclopentylamino-5-fluoro-1H-indol-2-yl)-4,5-dihydro-thiazol-4-yl]-ethanol]
9 | 14 nM | CN1CCN(C(=O)CC[C@@H]2CSC(c3cc4cc(Cl)cc(NC5CCCC5)c4[nH]3)=N2)CC1 [Example 154, 3-[(R)-2-(5-chloro-7-cyclopentylamino-1H-indol-2-yl)-4,5-dihydro-thiazol-4-yl]-1-(4-methyl-piperazin-1-yl)-propan-1-one]
10 | 15 nM | CCOC(=O)CC[C@@H]1CSC(c2cc3cc(OC(F)(F)F)cc(NC4CCCC4)c3[nH]2)=N1 [Example 168, 3-[(R)-2-(7-cyclopentylamino-5-trifluoromethoxy-1H-indol-2-yl)-4,5-dihydro-thiazol-4-yl]-propionic acid ethyl ester]
11 | 14 nM | O=C(C[C@@H]1CSC(c2cc3cc(Cl)cc(NC4CCCC4)c3[nH]2)=N1)NCCN1CCOCC1 [Example 74, 2-[(R)-2-(5-chloro-7-cyclopentylamino-1H-indol-2-yl)-4,5-dihydro-thiazol-4-yl]-N-(2-morpholin-4-yl-ethyl)-acetamide]
12 | 14 nM | O=C1CN(CC[C@@H]2CSC(c3cc4cc(F)cc(NC5CCCC5)c4[nH]3)=N2)CCN1 [Example 130, 4-{2-[(R)-2-(7-cyclopentylamino-5-fluoro-1H-indol-2-yl)-4,5-dihydro-thiazol-4-yl]-ethyl}-piperazin-2-one]
